# Reference: US20060135589A1, “1h-Indazole-3-carboxamide compounds as cyclin dependent kinase (cdk) inhibitors” (Astex Technology, Inc., priority 2002, published 2006)
# Target: T1, CDK2/CyclinA (Homo sapiens, UniProt P24941)
# T1 construct: purchased Upstate Biotechnology
# Assay: Measurement of CDK2 kinase inhibitory activity (IC50), 33P-ATP / histone H1 filter assay
# Format: biochemical
# Protocol: Measurement of CDK2 Kinase Inhibitory Activity (IC50)
# Compounds of the invention were tested for kinase inhibitory activity using the following protocol.
# 1.7 μl of active CDK2/CyclinA (Upstate Biotechnology, 10 U/μl) is diluted in assay buffer (250 μl of 10× strength assay buffer (200 mM MOPS pH 7.2, 250 mM β-glycerophosphate, 50 mM EDTA, 150 mM MgCl2), 11.27 μl 10 mM ATP, 2.5 μl 1M DTT, 25 μl 100 mM sodium orthovanadate, 708.53 μl H2O), and 10 μl mixed with 10 μl of histone substrate mix (60 μl bovine histone H1 (Upstate Biotechnology, 5 mg/ml), 940 μl H2O, 35 μCi γ^33P-ATP) and added to 96 well plates along with 5 μl of various dilutions of the test compound in DMSO (up to 2.5%). The reaction is allowed to proceed for 5 hours before being stopped with an excess of ortho-phosphoric acid (30 μl at 2%).
# γ^33P-ATP which remains unincorporated into the histone H1 is separated from phosphorylated histone H1 on a Millipore MAPH filter plate. The wells of the MAPH plate are wetted with 0.5% orthophosphoric acid, and then the results of the reaction are filtered with a Millipore vacuum filtration unit through the wells. Following filtration, the residue is washed twice with 200 μl of 0.5% orthophosphoric acid. Once the filters have dried, 25 μl of Microscint 20 scintillant is added, and then counted on a Packard Topcount for 30 seconds.
row,Compound,inhibition at 50 µM
1,"CC(=O)NCc1ccc(NC(=O)c2n[nH]c3ccc(I)cc23)cc1 [Example 15, N-[4-(acetylaminomethyl)phenyl]-5-iodo-1H-indazole-3-carboxamide]",≥ 50%
2,"O=C(Nc1ccccc1)c1n[nH]c2ccc(-c3ccccc3-c3ccccc3)cc12 [Example 85, 5-Biphenyl-2-yl-1H-indazole-3-carboxylic acid phenylamide]",≥ 50%
3,"NS(=O)(=O)c1ccc(NC(=O)c2n[nH]c3ccc(I)cc23)cc1 [Example 12, N-(4-aminosulphonylphenyl)-5-iodo-1H-indazole-3-carboxamide]",≥ 50%
4,"O=C(Nc1ccc(F)cc1)c1n[nH]c2ccccc12 [Example 70, 1H-Indazole-3-carboxylic acid (4-fluoro-phenyl)-amide]",≥ 50%
5,O=C(Nc1cccnc1)c1n[nH]c2ccc(I)cc12 [Example 40],≥ 50%
6,"CNS(=O)(=O)Cc1ccc(NC(=O)c2n[nH]c3ccc(-c4ccco4)cc23)cc1 [Example 23, 5-Furan-2-yl-1H-indazole-3-carboxylic acid (4-methylsulphamoylmethyl-phenyl)-amide]",≥ 50%
7,Cc1ccc(NC(=O)c2n[nH]c3ccc(I)cc23)nn1 [Example 50],≥ 50%
8,"CNS(=O)(=O)Cc1ccc(NC(=O)c2n[nH]c3ccc([N+](=O)[O-])cc23)cc1 [Example 19, 5-Nitro-1H-indazole-3-carboxylic acid (4-methylsulphamoylmethyl-phenyl)-amide]",≥ 50%
9,"NS(=O)(=O)c1ccc(NC(=O)c2n[nH]c3ccc([N+](=O)[O-])cc23)cc1 [Example 18, 5-Nitro-1H-indazole-3-carboxylic acid (4-sulphamoyl-phenyl)-amide]",≥ 50%
10,"CNS(=O)(=O)Cc1ccc(NC(=O)c2n[nH]c3ccc(-c4nccs4)cc23)cc1 [Example 29, 5-Thiazol-2-yl-1H-indazole-3-carboxylic acid (4-methylsulphamoylmethyl-phenyl)-amide]",≥ 50%
11,N=C(N)NS(=O)(=O)c1ccc(NC(=O)c2n[nH]c3ccccc23)cc1 [Example 36],≥ 50%
12,CCc1nnc(NC(=O)c2n[nH]c3ccc(Cl)cc23)s1 [Example 51],≥ 50%
13,"CC(=O)NCc1ccc(NC(=O)c2n[nH]c3ccccc23)cc1 [Example 5, N-[4-(acetylaminomethyl)phenyl]-1H-indazole-3-carboxamide]",≥ 50%
14,"CNS(=O)(=O)Cc1ccc(NC(=O)c2n[nH]c3ccc(-c4cccs4)cc23)cc1 [Example 21, 5-Thiophen-2-yl-1H-indazole-3-carboxylic acid (4-methylsulphamoylmethyl-phenyl)-amide]",≥ 50%
15,CCCCNC(=O)NS(=O)(=O)c1ccc(NC(=O)c2n[nH]c3ccccc23)cc1 [Example 35],≥ 50%
16,"Cc1ccc2[nH]nc(C(=O)Nc3ccc(F)cc3)c2c1 [Example 72, 5-Methyl-1H-indazole-3-carboxylic acid (4-fluoro-phenyl)-amide]",≥ 50%
17,O=C(Nc1ccc(S(=O)(=O)Nc2nccs2)cc1)c1n[nH]c2ccccc12 [Example 31],≥ 50%
18,O=C(Nc1cccnc1Cl)c1n[nH]c2ccc(I)cc12 [Example 44],≥ 50%

row,Compound,inhibition at 50 µM
1,"CNS(=O)(=O)Cc1ccc(NC(=O)c2n[nH]c3ccc(NC(=O)NCCCl)cc23)cc1 [Example 63, 5-[3-(2-Chloro-ethyl)-ureido]-1H-indazole-3-carboxylic acid (4-methylsulphamoylmethyl-phenyl)-amide]",≥ 50%
2,O=C(Nc1ccc(N2CCOCC2)cc1)c1n[nH]c2ccccc12 [Example 54],≥ 50%
3,O=C(Nc1ccc(F)cc1)c1n[nH]c2ccc(I)cc12 [Example 58],≥ 50%
4,"O=C(Nc1ccc(-c2c[nH]cn2)cc1)c1n[nH]c2ccccc12 [Example 8, N-[4-(1H-imidazol-4-yl)phenyl]-1H-indazole-3-carboxamide]",≥ 50%
5,"O=C(Nc1cccc(-c2nnn[nH]2)c1)c1n[nH]c2ccccc12 [Example 4, N-[3-(1H-tetrazol-5-yl)phenyl]-1H-indazole-3-carboxamide]",≥ 50%
6,"O=C(Nc1ccc(S(=O)(=O)N2CCOCC2)cc1)c1n[nH]c2ccccc12 [Example 10, N-[4-(morpholine-4-sulphonyl)phenyl]-1H-indazole-3-carboxamide]",≥ 50%
7,CS(=O)(=O)c1cccc(NC(=O)c2n[nH]c3ccc([N+](=O)[O-])cc23)c1 [Example 78],≥ 50%
8,N#Cc1ccc(NC(=O)c2n[nH]c3ccc(I)cc23)cn1 [Example 48],≥ 50%
9,"O=C(Nc1ccc(F)cc1)c1n[nH]c2cc(Br)ccc12 [Example 73, 6-Bromo-1H-indazole-3-carboxylic acid (4-fluoro-phenyl)-amide]",≥ 50%
10,"O=C(Nc1cccc(-c2cnco2)c1)c1n[nH]c2ccccc12 [Example 7, N-[3-(oxazol-5-yl)phenyl)-1H-indazole-3-carboxamide]",≥ 50%
11,"CS(=O)(=O)c1cccc(NC(=O)c2n[nH]c3ccc(I)cc23)c1 [Example 14, N-(3-methanesulphonylphenyl)-5-iodo-1H-indazole-3-carboxamide]",≥ 50%
12,"NS(=O)(=O)c1ccc(NC(=O)c2n[nH]c3ccccc23)cc1 [Example 26, 1H-Indazole-3-carboxylic acid (4-sulphamoyl-phenyl)-amide]",≥ 50%
13,O=C(Nc1cnc2ccccc2c1)c1n[nH]c2ccc(I)cc12 [Example 41],≥ 50%
14,O=C(Nc1ccc(Cl)nc1)c1n[nH]c2ccc(I)cc12 [Example 56],≥ 50%
15,"CS(=O)(=O)c1cccc(NC(=O)c2n[nH]c3ccccc23)c1 [Example 9, N-[3-methanesulphonylphenyl]-1H-indazole-3-carboxamide]",≥ 50%
16,O=C(Nc1ccc[nH]c1=O)c1n[nH]c2ccc(I)cc12 [Example 53],≥ 50%
17,COc1ccc(NC(=O)c2n[nH]c3ccc(I)cc23)cn1 [Example 39],≥ 50%

# Further lines, results first:
row,inhibition at 50 µM,Compound
1,≥ 50%,"O=C(Nc1ccccc1)c1n[nH]c2ccc(N3CCCS3(=O)=O)cc12 [Example 86, 5-(1,1-Dioxo-1lambda*6*-isothiazolidin-2-yl)-1H-indazole-3-carboxylic acid phenylamide]"
2,≥ 50%,CCOC(=O)N1CCC(NC(=O)c2n[nH]c3ccc(Cl)cc23)CC1 [Example 38]
3,≥ 50%,"O=C(Nc1ccccc1)c1n[nH]c2ccc(N3CCCC3)cc12 [Example 84, 5-pyrrolidin-1-yl-1H-indazole-3-carboxylic acid phenylamide]"
4,≥ 50%,O=C(Nc1ccccc1)c1n[nH]c2ccc(F)cc12 [Example 80]
5,≥ 50%,"O=C(Nc1ccc(Cl)nc1)c1n[nH]c2ccccc12 [Example 28, 1H-Indazole-3-carboxylic acid (6-chloro-pyridin-3-yl)-amide]"
6,≥ 50%,"CNS(=O)(=O)Cc1ccc(NC(=O)c2n[nH]c3ccc(Cl)cc23)cc1 [Example 25, 5-Chloro-1H-indazole-3-carboxylic acid (4-methylsulphamoylmethyl-phenyl)-amide]"
7,≥ 50%,"CC(=O)N1CCC(NC(=O)c2n[nH]c3ccccc23)CC1 [Example 68, 1H-Indazole-3-carboxylic acid (1-acetyl-piperidin-4-yl)-amide]"
8,≥ 50%,O=C(Nc1ccccc1)c1n[nH]c2ccccc12 [Example 27]
9,≥ 50%,"COC(=O)N1CCC(NC(=O)c2n[nH]c3ccc(Cl)cc23)C1 (stereo not drawn) [Example 81, 3-[(5-Chloro-1H-indazole-3-carbonyl)-amino]-pyrrolidine-1-carboxylic acid methyl ester]"
10,≥ 50%,"O=C(NC1CCNCC1)c1n[nH]c2ccccc12 [Example 67, 1H-Indazole-3-carboxylic acid piperidin-4-ylamide]"
11,≥ 50%,"O=C(NC1CCN(C(=O)C(F)(F)F)CC1)c1n[nH]c2ccccc12 [Example 66, 1H-Indazole-3-carboxylic acid [1-(2,2,2 trifluoro-acetyl)-Piperidin-4-yl]-amide]"
12,≥ 50%,"O=C(Nc1ccccc1)c1n[nH]c2ccc(N3CCOCC3)cc12 [Example 17, 5-Morpholin-4-yl-1H-indazole-3-carboxylic acid phenylamide]"
13,≥ 50%,"Nc1ccc2[nH]nc(C(=O)Nc3ccccc3)c2c1 [Example 60, 5-Amino-1H-indazole-3-carboxylic acid phenylamide]"
14,≥ 50%,O=C(Nc1ccccc1)c1n[nH]c2ccc([N+](=O)[O-])cc12 [Example 55]
15,≥ 50%,O=C(NC1CCN(Cc2ccccc2)C1)c1n[nH]c2ccc(Cl)cc12 (stereo not drawn) [Example 37]
16,≥ 50%,CN1CCC(NC(=O)c2n[nH]c3ccc(Cl)cc23)CC1 [Example 43]
17,≥ 50%,O=C(Nc1cccnc1)c1n[nH]c2ccc(Cl)cc12 [Example 47]
18,≥ 50%,O=C(NC1CCOCC1)c1n[nH]c2ccc(Cl)cc12 [Example 42]
19,≥ 50%,"O=C(Nc1ccccc1)c1n[nH]c2ccc(CCc3ccccc3)cc12 [Example 87, 5-Phenethyl-1H-indazole-3-carboxylic acid phenylamide]"
